Test results: ChEMBL document CHEMBL3046848, “Synthesis and biological evaluation of novel series of thieno[2,3-d]pyrimidine derivatives as anticancer and antimicrobial agents” (2013)
≈ marks a conversion by molar mass, not a printed value.

Legend:
Assay type in all cases: functional
Escherichia coli [1] = assay: Antimicrobial activity against Escherichia coli ATCC8739 assessed as diameter of growth inhibition zone at 1 mg/ml after 24 hr by agar cup diffusion method; conditions: ATCC8739, 24 h, read-out: IZ
Staphylococcus aureus [2] = assay: Antimicrobial activity against Staphylococcus aureus ATCC6538P assessed as diameter of growth inhibition zone at 1 mg/ml after 24 hr by agar cup diffusion method; conditions: read-out: IZ
Candida albicans [3] = assay: Antimicrobial activity against Candida albicans ATCC2091 assessed as diameter of growth inhibition zone at 1 mg/ml after 48 hr by agar cup diffusion method; conditions: ATCC2091, 48 h, read-out: IZ
Pseudomonas aeruginosa [4] = assay: Antimicrobial activity against Pseudomonas aeruginosa ATCC9027 assessed as diameter of growth inhibition zone at 1 mg/ml after 24 hr by agar cup diffusion method; conditions: ATCC9027, 24 h, read-out: IZ
Pseudomonas aeruginosa [5] = assay: Antimicrobial activity against Pseudomonas aeruginosa ATCC9027 assessed as growth inhibition after 48 hr by two-fold serial dilution method; conditions: ATCC9027, 48 h
Escherichia coli [6] = assay: Antimicrobial activity against Escherichia coli ATCC8739 assessed as growth inhibition after 48 hr by two-fold serial dilution method; conditions: ATCC8739, 48 h
Candida albicans [7] = assay: Antimicrobial activity against Candida albicans ATCC2091 assessed as growth inhibition after 48 hr by two-fold serial dilution method; conditions: ATCC2091, 48 h
SF-295 = assay: Growth inhibition of Homo sapiens (human) SF295 cells at 10 uM after 48 hr by SRB assay; conditions: SF-295, 48 h, read-out: GI
TK-10 = assay: Growth inhibition of Homo sapiens (human) TK10 cells at 10 uM after 48 hr by SRB assay; conditions: TK-10, 48 h, read-out: GI
Staphylococcus aureus [8] = assay: Antimicrobial activity against Staphylococcus aureus ATCC6538P assessed as growth inhibition after 48 hr by two-fold serial dilution method
SK-MEL-2 = assay: Growth inhibition of Homo sapiens (human) SK-MEL-2 cells at 10 uM after 48 hr by SRB assay; conditions: SK-MEL-2, 48 h, read-out: GI
IGROV-1 = assay: Growth inhibition of Homo sapiens (human) IGROV1 cells at 10 uM after 48 hr by SRB assay; conditions: IGROV-1, 48 h, read-out: GI

MIC (Pseudomonas aeruginosa [5]) [µg/mL] | MIC (Escherichia coli [6]) [µg/mL] | MIC (Candida albicans [7]) [µg/mL] | MIC (Staphylococcus aureus [8]) [µg/mL] | Compound | zone of inhibition at 1000 µg/mL (Escherichia coli [1]) [mm] | zone of inhibition at 1000 µg/mL (Staphylococcus aureus [2]) [mm] | zone of inhibition at 1000 µg/mL (Candida albicans [3]) [mm] | zone of inhibition at 1000 µg/mL (Pseudomonas aeruginosa [4]) [mm] | inhibition of growth at 10 µM (SF-295) [%] | inhibition of growth at 10 µM (TK-10) [%] | inhibition of growth at 10 µM (SK-MEL-2) [%] | inhibition of growth at 10 µM (IGROV-1) [%]
 |  |  |  | Cc1c(C(N)=O)sc2nc(SCC(O)CN3CCCCC3)n(-c3ccccc3)c(=O)c12 (stereo not drawn) | 15 | 10 | 15 | 12 |  |  |  | 
 |  |  |  | Cc1c(C(N)=O)sc2nc(SCC(=O)Nc3ccccc3)n(-c3ccccc3)c(=O)c12 | 15 | 10 | 15 | 12 |  |  |  | 
 |  |  |  | CCOC(=O)CSc1nc2sc(C(N)=O)c(C)c2c(=O)n1-c1ccccc1 | 13 | 10 | 15 | 12 |  |  |  | 
125 (≈ 239 µM) |  |  |  | Cc1c(C(N)=O)sc2nc(C)n(/N=c3\scc(-c4ccc(Cl)cc4)n3Cc3ccccc3)c(=O)c12 | 15 | 10 | 15 | 17 |  |  |  | 
 |  |  |  | Cc1c(C(N)=O)sc2nc(C)n(/N=c3\scc(-c4ccc(Br)cc4)n3Cc3ccccc3)c(=O)c12 | 15 | 11 | 15 | 12 |  |  |  | 
 | 125 (≈ 497 µM) |  |  | CCCn1cnc2sc(C(N)=O)c(C)c2c1=O | 17 | 10 | 15 | 12 |  |  |  | 
 |  | 7.81 (≈ 22.6 µM) |  | Clc1ccccc1C(c1ccccc1)(c1ccccc1)n1ccnc1 [CLOTRIMAZOLE] |  |  | 28 |  |  |  |  | 
125 (≈ 525 µM) |  |  |  | Cc1c(C(N)=O)sc2nc(C)n(N)c(=O)c12 | 15 | 10 | 15 | 17 |  |  |  | 
 |  |  |  | CSc1nc2sc(C(N)=O)c(C)c2c(=O)n1-c1ccccc1 | 13 | 10 | 15 | 12 |  |  |  | 
 |  |  |  | Cc1c(C(N)=O)sc2nc(C)n(/N=c3\scc(-c4ccc(Br)cc4)n3-c3ccccc3)c(=O)c12 | 15 | 10 | 15 | 12 |  |  |  | 
125 (≈ 494 µM) |  |  |  | Cc1c(C(N)=O)sc2ncn(CCO)c(=O)c12 | 15 | 10 | 15 | 17 | 43.8 | 97.1 |  | 
 |  |  |  | Cc1c(C(N)=O)sc2ncn(Cc3ccccc3)c(=O)c12 | 15 | 10 | 15 | 16 |  |  |  | 
125 (≈ 358 µM) | 7.81 (≈ 22.4 µM) |  | 3.91 (≈ 11.2 µM) | CC1(C)S[C@@H]2[C@H](NC(=O)[C@H](N)c3ccccc3)C(=O)N2[C@H]1C(=O)O [AMPICILLIN] | 26 | 30 |  | 18 |  |  |  | 
 |  |  |  | Cc1c(C(N)=O)sc2nc(S)n(-c3ccccc3)c(=O)c12 | 15 | 12 | 15 | 12 |  |  |  | 
 |  |  | 250 (≈ 605 µM) | Cc1c(C(N)=O)sc2nc(C)n(/N=C3\SCC(=O)N3c3ccccc3)c(=O)c12 | 15 | 14 | 16 | 12 |  |  |  | 
 |  |  |  | Cc1c(C(N)=O)sc2nc[nH]c(=O)c12 | 13 | 10 | 15 | 12 |  |  |  | 
 |  |  |  | Cc1c(C(N)=O)sc2nc(C)n(NC(=S)Nc3ccccc3)c(=O)c12 | 15 | 10 | 15 | 12 |  |  |  | 

MIC (Pseudomonas aeruginosa [5]) [µg/mL] | MIC (Escherichia coli [6]) [µg/mL] | MIC (Candida albicans [7]) [µg/mL] | MIC (Staphylococcus aureus [8]) [µg/mL] | Compound | zone of inhibition at 1000 µg/mL (Escherichia coli [1]) [mm] | zone of inhibition at 1000 µg/mL (Staphylococcus aureus [2]) [mm] | zone of inhibition at 1000 µg/mL (Candida albicans [3]) [mm] | zone of inhibition at 1000 µg/mL (Pseudomonas aeruginosa [4]) [mm] | inhibition of growth at 10 µM (SF-295) [%] | inhibition of growth at 10 µM (TK-10) [%] | inhibition of growth at 10 µM (SK-MEL-2) [%] | inhibition of growth at 10 µM (IGROV-1) [%]
 |  |  |  | Cc1c(C(N)=O)sc2nc(C)n(NC(=S)NCc3ccccc3)c(=O)c12 | 13 | 12 | 15 | 12 |  |  |  | 
 |  |  | 250 (≈ 585 µM) | Cc1c(C(N)=O)sc2nc(C)n(/N=C3\SCC(=O)N3Cc3ccccc3)c(=O)c12 | 15 | 14 | 16 | 12 |  |  |  | 
 |  |  |  | Cc1c(C(N)=O)sc2nc(S(=O)(=O)Cc3ccccc3)n(-c3ccccc3)c(=O)c12 | 15 | 10 | 15 | 12 |  |  |  | 
 | 125 (≈ 429 µM) |  |  | Cc1c(C(N)=O)sc2ncn(C3CCCCC3)c(=O)c12 | 17 | 10 | 15 | 12 |  |  |  | 
 | 125 (≈ 246 µM) |  |  | Cc1c(C(N)=O)sc2nc(C)n(/N=c3\scc(-c4ccc(Cl)cc4)n3-c3ccccc3)c(=O)c12 | 16 | 10 | 15 | 12 |  |  |  | 
 |  |  |  | Cc1c(C(N)=O)sc2ncn(-c3ccccn3)c(=O)c12 | 13 | 10 | 15 | 12 |  |  |  | 
 |  |  |  | CCSc1nc2sc(C(N)=O)c(C)c2c(=O)n1-c1ccccc1 | 16 | 10 | 15 | 12 |  |  |  | 
 |  |  |  | Cc1c(C(N)=O)sc2nc(SCC(=O)Nc3ccc(Cl)cc3)n(-c3ccccc3)c(=O)c12 | 15 | 10 | 15 | 12 |  | 47.2 | 116 | 79.4
 |  |  | 250 (≈ 669 µM) | CC(=O)CSc1nc2sc(C(N)=O)c(C)c2c(=O)n1-c1ccccc1 | 15 | 13 | 15 | 12 |  |  |  | 
 |  |  |  | Cc1c(C(N)=O)sc2nc(SCc3ccccc3)n(-c3ccccc3)c(=O)c12 | 15 | 10 | 15 | 12 |  |  |  | 
 |  |  |  | Cc1ccc(NC(=O)CSc2nc3sc(C(N)=O)c(C)c3c(=O)n2-c2ccccc2)cc1 | 15 | 10 | 15 | 12 |  |  |  | 
 |  |  |  | Cc1c(C(N)=O)sc2nc(SCC(O)CN3CCOCC3)n(-c3ccccc3)c(=O)c12 (stereo not drawn) | 13 | 10 | 15 | 12 |  |  |  | 
 | 125 (≈ 462 µM) |  |  | CCOC(=O)c1c(NC(C)=O)sc(C(N)=O)c1C | 16 | 10 | 15 | 12 |  |  |  | 
125 (≈ 335 µM) |  |  |  | Cc1c(C(N)=O)sc2nc(SCC3CO3)n(-c3ccccc3)c(=O)c12 (stereo not drawn) | 15 | 10 | 15 | 17 |  |  |  | 
 |  |  |  | CCS(=O)(=O)c1nc2sc(C(N)=O)c(C)c2c(=O)n1-c1ccccc1 | 13 | 10 | 15 | 12 |  |  |  | 
 |  |  |  | Cc1c(C(N)=O)sc2nc(S(C)(=O)=O)n(-c3ccccc3)c(=O)c12 | 16 | 11 | 15 | 12 |  |  |  | 
